Laboratory results published in patent EP4420661B1, “SMALL MOLECULES TARGETING GLYCOPROTEIN VI AS ANTIPLATELET AGENTS FOR USE IN THE PREVENTION AND/OR TREATMENT OF THROMBOSIS AND ASSOCIATED PATHOLOGIES” (Universidade de Santiago de Compostela, priority 2023, dated 2024).

Assays:
Type in all cases: in vitro ADME
[1] = plasma protein binding, Rapid Equilibrium Dialysis (RED), rat; conditions: 4h at 37°C
Method: (§1) Plasma from Seralab was employed in the assay and was carried out by employing Rapid Equilibrium Dialysis (RED) from Thermo Scientific.
(§2) The compounds were dissolved at 5 µM in plasma and added to the corresponding insert of the RED device. Dialysis buffer was added to the corresponding insert of the RED device. Plate was incubated for 4h at 37°C.
(§3) After the incubation period 50 µL aliquots of each chamber were transferred to empty vials. 50 µL of dialysis buffer were added to the plasma samples and 50 µL of plasma were added to the buffer samples. 300 µL of acetonitrile were added to all the samples and centrifuged at 4000 rpm 100 µL aliquots of the supernatants were transferred to a LC analysis plate. Samples were analyzed in a UPLC/MS/MS. Stationary phase: Acquity UPLC® BEHC18 1,7 µm (2.1 mm x 50 mm) (Waters). Gradient: A (H2O + 0.1% Formic acid); B (ACN + 0.1% Formic acid); Flow: 0.6mL/min Table 8: UPLC gradient / Protein binding assay
(§4) The chromatographic equipment employed was an ACQUITY UPLC / Xevo TQD System. Compound concentrations were calculated from the MS peak areas. Table 9: Plasma protein binding of the compounds of formula (I) in rat, mice, dogs and humans / (*) low recovery

Plasma protein [2] = assay: as above; conditions: 5 µM, 4h at 37°C
Method: as §1, §2, §3, §4

[3] = plasma protein binding, Rapid Equilibrium Dialysis (RED), human; conditions: 4h at 37°C
Method: as §1, §2, §3, §4

Plasma protein [4] = assay: as above; conditions: 5 µM, 4h at 37°C
Method: as §1, §2, §3, §4

[5] = plasma protein binding, Rapid Equilibrium Dialysis (RED), mouse; conditions: 4h at 37°C, (*) low recovery for (If)
Method: as §1, §2, §3, §4

Plasma protein [6] = assay: as above; conditions: 5 µM, 4h at 37°C, (*) low recovery for (If)
Method: as §1, §2, §3, §4

[7] = plasma protein binding, Rapid Equilibrium Dialysis (RED), dog; conditions: 4h at 37°C
Method: as §1, §2, §3, §4

Plasma protein [8] = assay: as above; conditions: 5 µM, 4h at 37°C
Method: as §1, §2, §3, §4

O=C1NC(=O)C(c2ccccc2)(c2ccccc2)N1 [Phenytoin, reference compound]
fraction unbound at 4 h, 5 µM [1]: 0.138
Unbound fraction (Plasma protein [2]): 13.76%
fraction unbound at 4 h, 5 µM [3]: 0.178
Unbound fraction (Plasma protein [4]): 17.77%
fraction unbound at 4 h, 5 µM [5]: 0.179
Unbound fraction (Plasma protein [6]): 17.94%
fraction unbound at 4 h, 5 µM [7]: 0.189
Unbound fraction (Plasma protein [8]): 18.94%
